# Test results published in patent US11008346B2, “Beta-lactamase inhibitors” (priority 2014, dated 2021).
# Where two headings read alike, the source gives them in different places.
# Experiments:
# p99 AmpC β-lactamase = molecular target: T1, p99 AmpC β-lactamase (Enterobacter cloacae, UniProt P05364); test: β-lactamase enzyme inhibition, p99 AmpC; format: biochemical
# T1 construct: made in house; host or cells: E. coli BL21(DE3)
# How it was run: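 Native untagged E. cloacae p99 AmpC was expressed in E. coli BL21(DE3) and purified by cation exchange and gel filtration. Enzyme was preincubated with inhibitor at 37°C for 15 min.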
# KPC-2 β-lactamase = molecular target: T2, KPC-2 β-lactamase (Klebsiella pneumoniae, UniProt Q9F663); test: β-lactamase enzyme inhibition, KPC-2; format: biochemical
# T2 construct: made in house; host or cells: E. coli BL21(DE3)
# How it was run: (§1)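 Native untagged enzymes expressed in E. coli BL21(DE3) and purified by cation exchange and gel filtration were preincubated with inhibitor for 15 min at 37° C. Hydrolysis was followed for 10 min: nitrocefin (100 μM final, 486 nm) for OXA-1 and p99 AmpC, imipenem (300 nm) for KPC-2, cefotaxime (260 nm) for SHV-5; IC50 from initial rates.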
# [1] = tested on: E. coli ESBL4 expressing CTX-M-15; test: broth microdilution MIC, E. coli CTX-M-15; format: cell-based; conditions: Fixed CAZ (ceftazidime) 4 μg/mL
# How it was run: (§2)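 Potentiation MICs were run by CLSI broth microdilution in cation-adjusted Mueller Hinton broth, with test compound serially diluted 2-fold from 32 to 0.25 μg/mL against a fixed 4 μg/mL beta-lactam overlay. Plates were incubated 16-20 hours at 37° C and the MIC was read visually.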
# [2] = tested on: K. pneumoniae A-1797 expressing KPC-2 and VIM-4; test: broth microdilution MIC, K. pneumoniae KPC-2 and VIM-4; format: cell-based; conditions: Fixed Mero (meropenem) 4 μg/mL
# How it was run: as §2
# [3] = tested on: E. cloacae 144200 expressing Class C P99 AmpC; test: broth microdilution MIC, E. cloacae P99; format: cell-based; conditions: Fixed CAZ (ceftazidime) 4 μg/mL
# How it was run: as §2
# OXA-1 β-lactamase = molecular target: T3, OXA-1 β-lactamase (Escherichia coli, UniProt P13661); test: β-lactamase enzyme inhibition, OXA-1; format: biochemical; conditions: Nitrocefin 100 μM, 486 nm; 15 min at 37° C. preincubation; read-out: IC50 OXA-1 (Class D)
# T3 construct: made in house; host or cells: E. coli BL21(DE3)
# How it was run: as §1
# SHV-5 β-lactamase = molecular target: T4, SHV-5 β-lactamase (Klebsiella pneumoniae, UniProt P0A3M1); test: β-lactamase enzyme inhibition, SHV-5; format: biochemical
# T4 construct: made in house; host or cells: E. coli BL21(DE3)
# How it was run: as §1
# [4] = tested on: S. aureus MSSA-7 producing penicillinase PC-1; test: broth microdilution MIC, S. aureus PC-1; format: cell-based; conditions: Fixed Pip (piperacillin) 4 μg/mL
# How it was run: as §2
# [5] = tested on: K. pneumoniae 156319 expressing KPC-3; test: broth microdilution MIC, K. pneumoniae KPC-3; format: cell-based; conditions: Fixed Mero (meropenem) 4 μg/mL
# How it was run: as §2
# [6] = molecular target: T5, VIM-2 metallo β-lactamase (Pseudomonas aeruginosa, UniProt Q9K2N0); test: β-lactamase enzyme inhibition, VIM-2; format: biochemical; conditions: Nitrocefin 100 μM, 486 nm; 15 min at 37° C. preincubation; read-out: IC50 VIM-2 (Class B)
# T5 construct: made in house; host or cells: E. coli BL21(DE3)
# How it was run: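 VIM-2 purified by Q sepharose anion exchange (50 mM Hepes pH 7.5, 0-600 mM NaCl gradient, two runs, >90% purity). Enzyme preincubated with inhibitor 15 min at 37° C; nitrocefin 100 μM final, absorbance at 486 nm followed 10 min. IC50 from initial hydrolysis rates versus inhibitor-free controls.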
# [7] = tested on: P. aeruginosa Ps296 expressing VIM-2; test: broth microdilution MIC, P. aeruginosa VIM-2; format: cell-based; conditions: Fixed Mero (meropenem) 4 μg/mL
# How it was run: as §2
# [8] = imipenem substrate, 300 nm, 15 min at 37° C. preincubation, read-out: IC50 KPC-2 (Class A)
# T1 sequence (P05364 21-381): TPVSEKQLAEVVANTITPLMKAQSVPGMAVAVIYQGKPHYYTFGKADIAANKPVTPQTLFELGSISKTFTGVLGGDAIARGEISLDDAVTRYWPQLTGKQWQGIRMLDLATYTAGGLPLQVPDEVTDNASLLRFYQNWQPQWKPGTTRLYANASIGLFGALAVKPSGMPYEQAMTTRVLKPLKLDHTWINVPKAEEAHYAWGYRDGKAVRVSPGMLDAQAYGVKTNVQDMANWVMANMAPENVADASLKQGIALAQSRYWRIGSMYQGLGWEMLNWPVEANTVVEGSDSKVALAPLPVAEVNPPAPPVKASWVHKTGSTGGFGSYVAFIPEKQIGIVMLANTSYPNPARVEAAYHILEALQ
# T2 sequence (Q9F663 25-293, looked up): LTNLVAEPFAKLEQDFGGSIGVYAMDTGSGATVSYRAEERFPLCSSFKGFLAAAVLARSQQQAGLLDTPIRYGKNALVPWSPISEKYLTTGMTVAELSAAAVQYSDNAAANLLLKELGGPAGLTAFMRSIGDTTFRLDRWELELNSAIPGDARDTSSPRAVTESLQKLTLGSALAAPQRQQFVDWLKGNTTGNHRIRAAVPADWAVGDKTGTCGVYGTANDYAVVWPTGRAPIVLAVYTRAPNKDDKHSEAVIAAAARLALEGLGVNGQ
# T3 sequence (P13661 26-276): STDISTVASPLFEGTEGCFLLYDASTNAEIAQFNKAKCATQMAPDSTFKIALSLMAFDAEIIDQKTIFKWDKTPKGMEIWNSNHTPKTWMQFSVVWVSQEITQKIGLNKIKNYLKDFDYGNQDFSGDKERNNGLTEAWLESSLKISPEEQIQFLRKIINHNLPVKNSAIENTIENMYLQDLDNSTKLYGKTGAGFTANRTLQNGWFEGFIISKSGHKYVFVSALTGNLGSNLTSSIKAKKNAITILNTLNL
# T4 sequence (P0A3M1 22-286): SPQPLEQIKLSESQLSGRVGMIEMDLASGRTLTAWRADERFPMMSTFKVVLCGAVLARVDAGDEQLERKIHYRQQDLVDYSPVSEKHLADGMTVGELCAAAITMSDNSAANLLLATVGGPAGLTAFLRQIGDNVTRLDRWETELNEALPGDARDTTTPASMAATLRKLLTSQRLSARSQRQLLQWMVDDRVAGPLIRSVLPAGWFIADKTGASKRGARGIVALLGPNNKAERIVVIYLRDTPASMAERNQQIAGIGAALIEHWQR
Compound,IC50 (p99 AmpC β-lactamase),IC50 (KPC-2 β-lactamase; [8]),"MIC of exemplary compounds in presence of fixed β-lactams, E. coli ESBL4 CTX-M-15 [1]","MIC of exemplary compounds in presence of fixed β-lactams, K.P. A-1797 KPC-2 VIM-4 [2]","MIC of exemplary compounds in presence of fixed β-lactams, E. cl. 144200 p99 AmpC [3]",IC50 (OXA-1 β-lactamase),IC50 (SHV-5 β-lactamase),"MIC of exemplary compounds in presence of fixed β-lactams, S. aureus MSSA-7 PC-1 [4]","MIC of exemplary compounds in presence of fixed β-lactams, K.P. 156319 KPC-3 [5]",IC50 [6],"MIC of exemplary compounds in presence of fixed β-lactams, P. aerug. Ps296 VIM-2 [7]",IC50 (KPC-2 β-lactamase)
"CCOCC(=O)N[C@H]1Cc2cccc(C(=O)O)c2OB1O [Example 25, (R)-3-(2-ethoxyacetamido)-2-hydroxy-3,4-dihydro-2H-benzo[e][1,2]oxaborinine-8-carboxylic acid]",< 100 nM,< 100 nM,C (C represents the MIC in the presence of ≤4 g/mL of a β-lactamase inhibitor),B (B represents the MIC in the presence of between 8 and 32 g/mL of a β-lactamase inhibitor),C (C represents the MIC in the presence of ≤4 g/mL of a β-lactamase inhibitor),< 100 nM,< 100 nM,C (C represents the MIC in the presence of ≤4 g/mL of a β-lactamase inhibitor),C (C represents the MIC in the presence of ≤4 g/mL of a β-lactamase inhibitor),1000 to 10000 nM,C (C represents the MIC in the presence of ≤4 g/mL of a β-lactamase inhibitor),
"O=C(CN1CCOC1=O)N[C@H]1Cc2cccc(C(=O)O)c2OB1O [Example 30, (R)-2-Hydroxy-3-[2-(2-oxo-oxazolidin-3-yl)-acetylamino]-3,4-dihydro-2H-benzo[e][1,2]oxaborinine-8-carboxylicacid]",< 100 nM,< 100 nM,C (C represents the MIC in the presence of ≤4 g/mL of a β-lactamase inhibitor),C (C represents the MIC in the presence of ≤4 g/mL of a β-lactamase inhibitor),C (C represents the MIC in the presence of ≤4 g/mL of a β-lactamase inhibitor),< 100 nM,< 100 nM,C (C represents the MIC in the presence of ≤4 g/mL of a β-lactamase inhibitor),C (C represents the MIC in the presence of ≤4 g/mL of a β-lactamase inhibitor),100 to 1000 nM,C (C represents the MIC in the presence of ≤4 g/mL of a β-lactamase inhibitor),
"NC(=O)NCCC(=O)N[C@H]1Cc2cccc(C(=O)O)c2OB1O [Example 23, (R)-2-Hydroxy-3-(3-ureido-propionylamino)-3,4-dihydro-2H-benzo[e][1,2]oxaborinine-8-carboxylic acid]",< 100 nM,< 100 nM,C (C represents the MIC in the presence of ≤4 g/mL of a β-lactamase inhibitor),B (B represents the MIC in the presence of between 8 and 32 g/mL of a β-lactamase inhibitor),C (C represents the MIC in the presence of ≤4 g/mL of a β-lactamase inhibitor),< 100 nM,100 to 1000 nM,C (C represents the MIC in the presence of ≤4 g/mL of a β-lactamase inhibitor),C (C represents the MIC in the presence of ≤4 g/mL of a β-lactamase inhibitor),1000 to 10000 nM,C (C represents the MIC in the presence of ≤4 g/mL of a β-lactamase inhibitor),
"O=C(CN1CCCC1=O)N[C@H]1Cc2cccc(C(=O)O)c2OB1O [Example 33, (R)-2-Hydroxy-3-[2-(2-oxo-pyrrolidin-1-yl)-acetylamino]-3,4-dihydro-2H-benzo[e][1,2]oxaborinine-8-carboxylic acid]",< 100 nM,< 100 nM,C (C represents the MIC in the presence of ≤4 g/mL of a β-lactamase inhibitor),C (C represents the MIC in the presence of ≤4 g/mL of a β-lactamase inhibitor),C (C represents the MIC in the presence of ≤4 g/mL of a β-lactamase inhibitor),< 100 nM,< 100 nM,C (C represents the MIC in the presence of ≤4 g/mL of a β-lactamase inhibitor),C (C represents the MIC in the presence of ≤4 g/mL of a β-lactamase inhibitor),1000 to 10000 nM,C (C represents the MIC in the presence of ≤4 g/mL of a β-lactamase inhibitor),
"CCCC(=O)N[C@H]1Cc2cccc(C(=O)O)c2OB1O [Example 1, (R)-3-Butyrylamino-2-hydroxy-3,4-dihydro-2H-benzo[e][1,2]oxaborinine-8-carboxylic acid]",< 100 nM,,C (C represents the MIC in the presence of ≤4 g/mL of a β-lactamase inhibitor),A (A represents an MIC of the fixed β-lactam antibiotic in the presence of >32 g/mL of a β-lactamase inhibitor),C (C represents the MIC in the presence of ≤4 g/mL of a β-lactamase inhibitor),< 100 nM,< 100 nM,C (C represents the MIC in the presence of ≤4 g/mL of a β-lactamase inhibitor),C (C represents the MIC in the presence of ≤4 g/mL of a β-lactamase inhibitor),1000 to 10000 nM,A (A represents an MIC of the fixed β-lactam antibiotic in the presence of >32 g/mL of a β-lactamase inhibitor),< 100 nM
"CC(Cl)(Cl)C(=O)N[C@H]1Cc2cccc(C(=O)O)c2OB1O [Example 11, (R)-3-(2,2-Dichloro-propionylamino)-2-hydroxy-3,4-dihydro-2H-benzo[e][1,2]oxaborinine-8-carboxylic acid]",< 100 nM,< 100 nM,C (C represents the MIC in the presence of ≤4 g/mL of a β-lactamase inhibitor),A (A represents an MIC of the fixed β-lactam antibiotic in the presence of >32 g/mL of a β-lactamase inhibitor),C (C represents the MIC in the presence of ≤4 g/mL of a β-lactamase inhibitor),< 100 nM,< 100 nM,C (C represents the MIC in the presence of ≤4 g/mL of a β-lactamase inhibitor),C (C represents the MIC in the presence of ≤4 g/mL of a β-lactamase inhibitor),1000 to 10000 nM,B (B represents the MIC in the presence of between 8 and 32 g/mL of a β-lactamase inhibitor),
"O=C(CCn1ccnc1)N[C@H]1Cc2cccc(C(=O)O)c2OB1O [Example 29, (R)-2-Hydroxy-3-(3-imidazol-1-yl-propionylamino)-3,4-dihydro-2H-benzo[e][1,2]oxaborinine-8-carboxylic acid]",< 100 nM,< 100 nM,C (C represents the MIC in the presence of ≤4 g/mL of a β-lactamase inhibitor),A (A represents an MIC of the fixed β-lactam antibiotic in the presence of >32 g/mL of a β-lactamase inhibitor),C (C represents the MIC in the presence of ≤4 g/mL of a β-lactamase inhibitor),< 100 nM,< 100 nM,C (C represents the MIC in the presence of ≤4 g/mL of a β-lactamase inhibitor),C (C represents the MIC in the presence of ≤4 g/mL of a β-lactamase inhibitor),1000 to 10000 nM,C (C represents the MIC in the presence of ≤4 g/mL of a β-lactamase inhibitor),
